Test results published in ChEMBL document CHEMBL3861987, “Synthesis, antitumor evaluation and 3D-QSAR studies of [1,2,4]triazolo[4,3-b][1,2,4,5]tetrazine derivatives” (Bioorg Med Chem Lett, 2016).

Columns and labels:
MCF-7 (Homo sapiens) = assay: Antiproliferative activity against human MCF-7 cells after 72 hrs by MTT assay; details: MCF-7, 72 h
[1] = Cytotoxicity against human MCF7 cells assessed as reduction in cell viability after 72 hrs by MTT assay; assay type: functional, cell-based; details: MCF7, 72 h
[2] = Cytotoxicity against human Bewo cells assessed as reduction in cell viability after 72 hrs by MTT assay; assay type: functional, cell-based
[3] = Cytotoxicity against human HL60 cells assessed as reduction in cell viability after 72 hrs by MTT assay; assay type: functional, cell-based; details: HL-60, 72 h
[4] = Solubility of compound in DMSO; assay type: physicochemical

| Structure (SMILES) | IC50 (MCF-7 (Homo sapiens); read-out: IC50) | IC50 (MCF-7 (Homo sapiens); read-out: pIC50 (converted)) | IC50 [1] | IC50 [2] | IC50 [3] | solubility [4] |
| --- | --- | --- | --- | --- | --- | --- |
| c1ccc(CN2CCN(c3nnc4nncn4n3)CC2)cc1 | 27.3 µM | 27.3 µM | – | – | – | – |
| O=C(c1ccccc1)N1CCN(c2nnc3nncn3n2)CC1 | 8.38 µM | 8.38 µM | – | – | – | – |
| CCCCCC(=O)N1CCN(c2nnc3nncn3n2)CC1 | 5.26 µM | 5.26 µM | – | – | – | – |
| CCCNc1nnc2nncn2n1 | 19.8 µM | 19.8 µM | – | – | – | – |
| CCC(=O)N1CCN(c2nnc3nncn3n2)CC1 | 14.8 µM | 14.8 µM | – | – | – | – |
| O=C(Cc1ccccc1)N1CCN(c2nnc3nncn3n2)CC1 | 3.08 µM | 3.08 µM | – | – | – | – |
| c1ccc(CCNc2nnc3nncn3n2)cc1 | 1.24 µM | 1.24 µM | – | – | – | – |
| c1nnc2nnc(N3CCCCC3)nn12 | 27.2 µM | 27.2 µM | – | – | – | – |
| c1nnc2nnc(NC3CCCC3)nn12 | 88.2 µM | 88.1 µM | – | – | – | – |
| CCCCNc1nnc2nncn2n1 | 13.7 µM | 13.7 µM | – | – | – | – |
| O=C(c1ccc([N+](=O)[O-])cc1)N1CCN(c2nnc3nncn3n2)CC1 | 4.53 µM | 4.53 µM | – | – | – | – |
| O=C(c1ccc(Cl)cc1)N1CCN(c2nnc3nncn3n2)CC1 | 12.8 µM | 12.9 µM | – | – | – | – |
| CCCCC(=O)N1CCN(c2nnc3nncn3n2)CC1 | 2.76 µM | 2.75 µM | – | – | – | – |
| CC(=O)N1CCN(c2nnc3nncn3n2)CC1 | 13.9 µM | 13.9 µM | – | – | – | – |
| Nc1nnc2nncn2n1 | 46.5 µM | 46.5 µM | – | – | – | – |
| OCCNc1nnc2nncn2n1 | 11.6 µM | 11.6 µM | – | – | – | – |
| CN1CCN(c2nnc3nncn3n2)CC1 | 21.6 µM | 21.6 µM | – | – | – | – |
| CC(C)(C)C(=O)N1CCN(c2nnc3nncn3n2)CC1 | 5.51 µM | 5.51 µM | – | – | – | – |
| Cc1ccc(C(=O)N2CCN(c3nnc4nncn4n3)CC2)cc1 | 15.9 µM | 15.9 µM | – | – | – | – |
| CCCC(=O)N1CCN(c2nnc3nncn3n2)CC1 | 6.91 µM | 6.92 µM | – | – | – | – |

| Structure (SMILES) | IC50 (MCF-7 (Homo sapiens); read-out: IC50) | IC50 (MCF-7 (Homo sapiens); read-out: pIC50 (converted)) | IC50 [1] | IC50 [2] | IC50 [3] | solubility [4] |
| --- | --- | --- | --- | --- | --- | --- |
| CC(C)COC(=O)N1CCN(c2nnc3nncn3n2)CC1 | 5.39 µM | 5.38 µM | – | – | – | – |
| c1nnc2nnc(NC3CCCCC3)nn12 | 3.51 µM | 3.52 µM | – | – | – | – |
| O=C(C1CCCCC1)N1CCN(c2nnc3nncn3n2)CC1 | 1.26 µM | 1.26 µM | – | – | – | – |
| Cc1nnc2nnc(N3CCCC3)nn12 | – | 44.9 µM | 44.8 µM | 5.36 µM | 29.7 µM | – |
| O=[N+]([O-])c1ccc(-c2nnc3nnc(N4CCCC4)nn23)cc1 | – | – | > 100 µM | > 100 µM | > 100 µM | – |
| C1CCC(c2nnc3nnc(N4CCCC4)nn23)CC1 | – | 37.7 µM | 37.7 µM | 22 µM | 23.8 µM | – |
| Cc1ccc(-c2nnc3nnc(-n4nc(C)cc4C)nn23)cc1 | – | 36.2 µM | 36.2 µM | 7.54 µM | > 100 µM | – |
| Clc1ccc(-c2nnc3nnc(N4CCCC4)nn23)c(Cl)c1 | – | 19.6 µM | 19.6 µM | 8.06 µM | 8.65 µM | – |
| c1ccc(-c2nnc3nnc(N4CCCC4)nn23)cc1 | – | – | > 100 µM | > 100 µM | > 100 µM | Insoluble |
| CCCCCc1nnc2nnc(-n3nc(C)cc3C)nn12 | – | 22 µM | 22 µM | 2.79 µM | 1.05 µM | – |
| Cc1cc(C)n(-c2nnc3nnc(-c4ccccc4Cl)n3n2)n1 | – | 19.5 µM | 19.5 µM | 3.21 µM | 73.6 µM | – |
| COc1ccc(-c2nnc3nnc(N4CCOCC4)nn23)cc1 | – | – | > 100 µM | 8.94 µM | 39 µM | – |
| Cc1cc(C)n(-c2nnc3nnc(-c4ccccc4)n3n2)n1 | – | 13.6 µM | 13.7 µM | 23.6 µM | 12.1 µM | – |
| Clc1ccccc1-c1nnc2nnc(N3CCCC3)nn12 | – | 29.6 µM | 29.6 µM | 2.99 µM | 2.66 µM | – |
| c1ccc(-c2nnc3nnc(N4CCOCC4)nn23)cc1 | – | 8.87 µM | 8.87 µM | 5.65 µM | 30.4 µM | – |
| Fc1ccc(-c2nnc3nnc(N4CCOCC4)nn23)cc1 | – | 32.9 µM | 32.9 µM | 4.65 µM | 28.9 µM | – |
| Cc1cc(C)n(-c2nnc3nnc(C)n3n2)n1 | – | 17.8 µM | 17.8 µM | 2.61 µM | 0.43 µM | – |
| Cc1nnc2nnc(N3CCOCC3)nn12 | – | 38.9 µM | 38.9 µM | 5.88 µM | 4.52 µM | – |
| O=[N+]([O-])c1ccc(-c2nnc3nnc(N4CCOCC4)nn23)cc1 | – | – | > 100 µM | > 100 µM | 5.79 µM | – |
| CC(C)(C)c1nnc2nnc(N3CCCC3)nn12 | – | 55 µM | 55 µM | 12.5 µM | > 100 µM | – |

| Structure (SMILES) | IC50 (MCF-7 (Homo sapiens); read-out: IC50) | IC50 (MCF-7 (Homo sapiens); read-out: pIC50 (converted)) | IC50 [1] | IC50 [2] | IC50 [3] | solubility [4] |
| --- | --- | --- | --- | --- | --- | --- |
| Cc1cc(C)n(-c2nnc3nnc(C(C)C)n3n2)n1 | – | 33.7 µM | 33.7 µM | 2.32 µM | 1.16 µM | – |
| Clc1ccc(-c2nnc3nnc(N4CCOCC4)nn23)c(Cl)c1 | – | 19.3 µM | 19.3 µM | 1.71 µM | 4.84 µM | – |
| Cc1cc(C)n(-c2nnc3nnc(C(C)(C)C)n3n2)n1 | – | 17.6 µM | 17.6 µM | 0.73 µM | 0.73 µM | – |
| Fc1ccc(-c2nnc3nnc(N4CCCC4)nn23)cc1 | – | – | > 100 µM | > 100 µM | 4.56 µM | Insoluble |
| Clc1ccccc1-c1nnc2nnc(N3CCOCC3)nn12 | – | 14.9 µM | 14.9 µM | 3.15 µM | 13.2 µM | – |
| CC(C)c1nnc2nnc(N3CCCC3)nn12 | – | 46.8 µM | 46.8 µM | 3.43 µM | 71.2 µM | – |
| Clc1ccc(-c2nnc3nnc(N4CCOCC4)nn23)cc1 | – | 13.1 µM | 13.1 µM | 4.09 µM | 0.63 µM | – |
| Cc1cc(C)n(-c2nnc3nnc(-c4ccc(Cl)cc4)n3n2)n1 | – | 5.57 µM | 5.57 µM | 22.6 µM | > 100 µM | – |
| CCc1nnc2nnc(-n3nc(C)cc3C)nn12 | – | 36.1 µM | 36 µM | 1.64 µM | 0.82 µM | – |
| Cc1cc(C)n(-c2nnc3nnc(C4CCCCC4)n3n2)n1 | – | 12.8 µM | 12.8 µM | 6.7 µM | 0.67 µM | – |
| COc1ccc(-c2nnc3nnc(-n4nc(C)cc4C)nn23)cc1 | – | 16.7 µM | 16.7 µM | 18.3 µM | > 100 µM | – |
| Cc1cc(C)n(-c2nnc3nnc(Cc4ccccc4)n3n2)n1 | – | 54.8 µM | 54.8 µM | 2.29 µM | 2.61 µM | – |
| O=[N+]([O-])c1ccc(-c2nnc3nnc(N4CCCCC4)nn23)cc1 | – | – | > 100 µM | > 100 µM | 0.61 µM | – |
| CCCCCc1nnc2nnc(N3CCCC3)nn12 | – | 42.9 µM | 42.9 µM | 27.9 µM | 42.5 µM | – |
| COc1ccc(-c2nnc3nnc(N4CCCCC4)nn23)cc1 | – | – | > 100 µM | > 100 µM | 12.8 µM | – |
| Cc1cc(C)n(-c2nnc3nnc(-c4ccc([N+](=O)[O-])cc4)n3n2)n1 | – | 6.85 µM | 6.85 µM | 7.29 µM | > 100 µM | – |
| CCc1nnc2nnc(N3CCCC3)nn12 | – | 47 µM | 47 µM | 5.02 µM | 47 µM | – |
| Fc1ccc(-c2nnc3nnc(N4CCCCC4)nn23)cc1 | – | 41.4 µM | 41.4 µM | 3.34 µM | 30.7 µM | – |
